The numbers were not newly measured in publication PMC8347148, “An Evaluation of Human Induced Pluripotent Stem Cells to Test for Cardiac Developmental Toxicity” (International Journal of Molecular Sciences, 2021), which cites them from elsewhere.

The conditions of the series: can be as high as; cited from earlier work.

Consider `CN1CCC[C@H]1c1cccnc1` [nicotine], for which the “nicotine concentration in fetal serum” value is not above 15.4 µM.
